In patent publication US20030077298A1, “Activators and ligands of PPAR-beta/delta for the treatment of skin conditions” (The Regents of the University of California, a California …, priority 2001, published 2003):
Read-outs that look alike come from different tables or passages of the source.

Key:
PPAR-alpha [1] = target: T1, PPAR-alpha (Homo sapiens, UniProt Q07869); settings: known cross-reactive PPAR agonists; cited from earlier work
T1 sequence (Q07869 1-468): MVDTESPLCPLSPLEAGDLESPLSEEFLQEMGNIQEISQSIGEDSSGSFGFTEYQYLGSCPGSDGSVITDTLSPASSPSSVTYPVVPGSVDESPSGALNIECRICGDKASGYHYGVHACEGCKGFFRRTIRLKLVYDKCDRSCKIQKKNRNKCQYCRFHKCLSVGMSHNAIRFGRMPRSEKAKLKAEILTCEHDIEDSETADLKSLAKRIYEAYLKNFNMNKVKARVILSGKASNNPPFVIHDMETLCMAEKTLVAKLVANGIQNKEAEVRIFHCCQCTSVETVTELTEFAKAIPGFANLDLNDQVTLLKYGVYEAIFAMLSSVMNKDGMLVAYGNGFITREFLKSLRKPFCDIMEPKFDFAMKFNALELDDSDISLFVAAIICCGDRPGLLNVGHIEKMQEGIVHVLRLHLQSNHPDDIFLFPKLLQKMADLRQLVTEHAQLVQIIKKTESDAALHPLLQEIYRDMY

ears of CD-1 mice = experiment: TPA-induced irritant contact dermatitis, ear thickness; type: in vivo, mouse; settings: for effect on TPA induced increase in ear thickness: GW1514 4 mM in acetone, topical, 45 minutes and 4 hours after TPA, FIG. 9
Protocol: TPA was applied to the inner and outer surface of the left ears of male mice. The right ears were treated with vehicle alone (acetone). […] Ear thickness was measured with a digital caliper (Mitutoyo Corp., Tokyo, Japan).

[2] = test system: epidermal permeability barrier of hairless mice; experiment: Permeability barrier recovery (TEWL) after barrier disruption; type: in vivo, mouse; settings: for percent barrier recovery: pretreated 4 mM twice daily for three days
Protocol: Permeability of the epidermal barrier was then experimentally disrupted by the repeated application of cellophane tape, solvent extraction (repeated topical acetone), or by detergent treatment (repeated topical sodium dodecyl sulfate) until the transepidermal water loss (TEWL) reached 6-8 mg/cm^2/h. Recovery of barrier function was determined by measurement of transepidermal water loss (TEWL) with an electrolytic water analyzer (MEECO®, Warrington, Pa.) at 3 and 6 hours after barrier disruption.
Barrier recovery is reported as percent barrier recovery from the initial induced defect.

PPAR-alpha [3] = target: T1, PPAR-alpha; experiment: PPAR subtype activation (statement in description); settings: "it has now been discovered"; no method given
[4] = test system: cultured human keratinocytes; experiment: Keratinocyte differentiation in vitro, involucrin protein by Western blot; type: cell-based; settings: 8 μM
Protocol: (§1) Second-passage keratinocytes isolated from newborn foreskins were cultured in serum-free keratinocyte growth medium (KGM; Clonetics, San Diego, Calif., USA). […] Poly-A mRNA was isolated and transglutaminase I, involucrin and PPAR-beta/delta mRNA levels were measured by Northern blot analysis (FIG. 1).
Total cellular protein was isolated from cultured keratinocytes and involucrin protein levels were assessed by Western blot analysis. The cells were homogenized by sonication, their protein content was determined, and gels were loaded with equal amounts per sample and lane. Western Immunoblotting was performed using 7.5% SDS-PAGE, as described previously (Laemmli, 1970). Following transfer of protein to PVDF membranes, blots were incubated overnight with primary antibody at 4° C. Secondary antibody (peroxidase conjugated anti mouse; Amersham PharmaciaBiotech Inc., Piscataway, N.J.) was applied and blots were incubated at room temperature for 2 hours. Final detection was performed by chemiluminescence (ECL kit; Amersham). Involucrin protein was detected with a monoclonal mouse anti-human involucrin antibody.

[5] = test system: cultured human keratinocytes; experiment: Keratinocyte differentiation in vitro, mRNA levels by Northern blot; type: cell-based
Protocol: Therefore, to determine if GW1514 could stimulate keratinocyte differentiation, in vitro changes in the levels involucrin and transglutaminase I mRNA, and involucrin protein expression were determined when cells were cultured in the presence of GW1514. In addition, levels of PPAR-betaldelta mRNA were compared in cells treated with GW1514 versus untreated controls.
as §1
(§2) PolyA RNA was purified using oligo(dT) cellulose (Amersham Pharmacia). RNA was electrophoresed through 1% agarose gels containing 2.2 M formaldehyde, and RNA integrity was visualized by ethidium bromide staining. The RNA was then transferred to a nylon membrane and blots were hybridized overnight at 65° C. with the appropriate ^32P-labeled cDNA probes. Probes were ^32P-labeled by random priming. Washes were performed in 0.1% SSC and 0.1 SDS for 20 minutes at room temperature and at 65° C., respectively. Autoradiography was performed at −70° C. Blots were probed with GAPDH to control for normal loading. Bands of the correct size were quantified by densitometry using QuantityOne software (Bio-Rad Laboratories Inc., Hercules, Calif., USA).

[6] = test system: normal epidermis of hairless mice; experiment: Topical treatment of normal epidermis: filaggrin/loricrin immunohistochemistry and PCNA staining; type: in vivo, mouse
Excerpt: At the conclusion of the experiment the animals were sacrificed. Mouse skin samples were fixed with 4% formaldehyde in phosphate-buffered saline (PBS) and embedded in paraffin. Sections (6 μm) were collected on microscope slides and used for immunohistochemistry. Photographs were taken with a Zeiss microscope and digital images were captured and assembled by appropriate software. Fillagrin and loricrin protein expression were detected by immunohistochemistry using antibodies purchased from BabCo (Richmond, Calif.). Proliferating keratinocytes were quantified in sections by staining with biotinylated anti-proliferating cell nuclear antigen (PCNA) antibody (CalTag Laboratories, Burlingame, Calif.).

[7] = test system: epidermis of PPARα−/− and PPARα+/+ mice; experiment: Topical treatment of PPAR-alpha knockout and wild type mice: filaggrin/loricrin immunohistochemistry; type: in vivo, mouse; settings: 4 mM topical twice a day for 6 days
Protocol: The epidermis of PPARα knockout (PPARα−/−) mice, as well as the epidermis of wild type(PPARα+/+) mice was treated with topical applications of GW1514. Expression of the in vivo differentiation markers loricrin and filaggrin was measured by immunohistochemical staining following treatment.
PPAR-alpha−/−mice in a mixed C57BL/6 and Sv129 background were compared with age matched C57BL/6 and Sv129 wild type controls. […] At the conclusion of the experiment, animals were sacrificed. Skin samples were taken and fixed with 4% formaldehyde in phosphate-buffered saline (PBS) and embedded in paraffin. Sections (6 μm) were collected on microscope slides and used for immunohistochemistry. Photographs were taken with a Zeiss microscope and digital images were captured and assembled by appropriate software. Fillagrin and loricrin protein expression were detected by immunohistochemistry using antibodies purchased from BabCo (Richmond, Calif.).

[8] = test system: hyperplastic epidermis of hairless mice; experiment: Experimentally induced epidermal hyperplasia: filaggrin/loricrin and PCNA staining; type: in vivo, mouse; settings: 4 mM in acetone topically for three days after induction of hyperplasia
Protocol: The skin of 6-8 week old hairless mice (Simonsen Laboratories, Gilroy, Calif.) was treated twice a day for 3 days with acetone soaked cotton balls until the transepidermal water loss reached 6-8 mg/cm^2/h. […] At the completion of the experimental treatments, the animals were sacrificed and skin samples were taken and fixed with 4% formaldehyde in phosphate-buffered saline (PBS) and embedded in paraffin. Sections (6 μm) were collected on microscope slides and used for immunohistochemistry. Photographs were taken with a Zeiss microscope and digital images were captured and assembled by appropriate software. Fillagrin and loricrin protein expression were detected by immunohistochemistry using antibodies purchased from BabCo (Richmond, Calif.). Proliferating keratinocytes were quantified in sections by staining with biotinylated anti-proliferating cell nuclear antigen (PCNA) antibody (CalTag Laboratories, Burlingame, Calif.).

[9] = test system: cultured human keratinocytes; experiment: PPAR-beta/delta mRNA in keratinocytes treated with inflammatory stimuli (Northern blot); type: cell-based; settings: LPS; IL1-beta 50 ng/ml; TNF-alpha 100 ng/ml; UV-B 30 mJ/cm^2
Protocol: Second-passage keratinocytes isolated from newborn foreskins were cultured in serum-free keratinocyte growth medium (KGM; Clonetics, San Diego, Calif., USA). […] Control keratinocytes were treated with vehicle (0.05%) ethanol, or sham irradiated. UV exposure was performed in phosphate buffered saline which was replaced by serum free KGM after irradiation. For cytokine treatment, 0.1% bovine serum albumin was added to the medium.
as §2, with “Quantityone” for “QuantityOne”, “Laboratories,” for “Laboratories”

[10] = 8 μM vs vehicle (0.05% ethanol), Northern blot
[11] = 4 mM in acetone, topical, twice a day for 6 days, vs vehicle

Molecule: Cc1cccc(Nc2cc(Cl)nc(SCC(=O)O)n2)c1C [WY 14643]
- activation of PPAR-alpha (PPAR-alpha [1]): activates

Molecule: C[C@H]1C[C@H]2[C@@H]3CCC4=CC(=O)C=C[C@]4(C)[C@@]3(F)[C@@H](O)C[C@]2(C)[C@@]1(O)C(=O)CCl [clobetasol]
- effect on TPA induced increase in ear thickness (ears of CD-1 mice): anti-inflammatory effect

Molecule: Cc1cc(SCc2oc(-c3ccc(C(F)(F)F)cc3)nc2C)ccc1OCC(=O)O [GW1514, (2-methyl-4-(((4-methyl-2-(4-trifluoromethylphenyl)-1,3-oxazol-5-yl)methyl)sulfanyl)phenoxy)acetic acid]
- effect on TPA induced increase in ear thickness (ears of CD-1 mice): reduced the magnitude
- recovery of permeability barrier function ([2]; regardless of the method of barrier perturbation (tape, acetone, detergent)): accelerated recovery
- percent barrier recovery ([2]; three hour post tape-strip): ~50%
- percent barrier recovery ([2]; three hours after repeated topical acetone): about 30%
- activation of PPAR-alpha (PPAR-alpha [3]): not also activators of PPAR-alpha
- increase in involucrin protein expression [4]: 5 fold
- PPAR-beta/delta mRNA levels [5, 10]: increased levels
- involucrin mRNA levels [5, 10]: increased levels
- transglutaminase I mRNA levels [5, 10]: increased levels
- induction of differentiation markers compared with high calcium concentrations in culture medium ([5]; 8 μM, FIG. 1): more pronounced
- filaggrin immunohistochemical staining [6, 11]: increased levels of immunohistochemical staining
- loricrin immunohistochemical staining [6, 11]: increased levels of immunohistochemical staining
- cell proliferation (PCNA) ([6]; after six days treatment): at normal levels
- expression of in vivo differentiation markers ([6]; after three days of treatment): increased expression
- pool of proliferating cells (PCNA) ([6]; three days after treatment): transiently increased
- filaggrin immunohistochemical staining ([7]; PPAR-alpha knockout (−/−) mice): increased immunohistochemical staining
- loricrin immunohistochemical staining ([7]; PPAR-alpha knockout (−/−) mice): increased immunohistochemical staining
- filaggrin immunohistochemical staining ([7]; wild type (+/+) mice): increased immunohistochemical staining
- loricrin immunohistochemical staining ([7]; wild type (+/+) mice): increased immunohistochemical staining
- expression of differentiation marker filaggrin [8]: increase
- expression of differentiation marker loricrin [8]: increase
- number of proliferating nuclei as measured by PCNA staining [8]: did not produce an increase

Molecule: IL1-β: cytokine used as inflammatory stimulus on cultured keratinocytes
- PPAR-beta/delta mRNA levels relative to untreated control [9]: nearly twice

Molecule: CCCCCCCCCCCCCC(=O)O[C@@H]1[C@@H](C)[C@@]2(O)[C@@H](C=C(CO)C[C@]3(O)C(=O)C(C)=C[C@@H]23)[C@@H]2C(C)(C)[C@]12OC(C)=O [TPA, 12-O-tetradecanoylphorbol-13-acetate]
- increase in ear thickness following TPA treatment (ears of CD-1 mice; 10 μl of 0.03% TPA in acetone, single topical application): approximately 2 fold
- increase in ear weight following TPA treatment (ears of CD-1 mice; 10 μl of 0.03% TPA in acetone, single topical application, not shown): approximately 2 fold

Molecule: lipopolysaccharide [reference compound]
- PPAR-beta/delta mRNA levels relative to untreated control [9]: nearly twice
